Experimental data from patent publication US20040138258A1, “Inhibitors of 11beta-hydroxysteroid dehydrogenase and uses therefor” (priority 2002, published 2004).

Target: T1, rat liver 11β HSD (Rattus norvegicus, UniProt P16232)
T1 construct: for the 11β HSDs isolated from rat liver; from tissue; host or cells: rat liver
Experiment: rat liver 11β HSD oxidative activity, corticosterone utilization (Lineweaver-Burk kinetics)
Assay type: biochemical
Details: for inhibition of the enzyme: purified rat liver 11β HSD, 1,2,6,7-3H-corticosterone; for Ki: purified rat liver 11β HSD, oxidative activity, NADP+, 1,2,6,7-3H-corticosterone, with regard to the glucocorticoid substrate, read-out: Kis; for mode of inhibition: with regard to the glucocorticoid substrate (corticosterone), Lineweaver-Burk plot, rat liver 11β HSD oxidative activity
Experimental: Computational analyses were performed using the latest version of MacSpartan Plus and MSI InsightII. Experimental analysis employed the rat enzyme as described (Monder et al., BBA […] (1991) and references therein). Kinetic data were analyzed in Excel and plotted in CricketGraph.
The structural similarity between GCs like cortisol and the monoterpenes with the conformation of neomenthol (FIG. 1) was confirmed by the computational analysis of their steric and electronic similarities, as summarized in FIGS. 2 and 3. Only neomenthol precisely mimicked the region of GCs around C11 that contains the oxygen atom subjected to the redox reactions mediated by the 11β HSDs. Consequently, only neomenthol should bind to such an enzyme like its physiological substrate, competing with said substrate for the active site of said enzyme. This computation-based prediction was confirmed experimentally, as shown in FIGS. 4 and 5 for the 11β HSDs isolated from rat liver. The purified rat liver 11β HSD, when used in vitro, utilizes NADP+ and oxidizes cortisol and corticosterone in an ordered sequential bireactant mechanism (Monder et al., Biochim. Biophys. Acta 1115:23-29 (1991) and references therein). […] More importantly, the results identified the conformation of neomenthol as a lead for the rational optimization of 11β HSD inhibitors, applicable to both the in vivo oxidizing activity of 11β HSD2 and the in vivo reducing activity of 11β HSD1, as shown in FIG. 6. Using the same computational algorithms that correctly predicted the competitive mode of inhibitory activity for neomenthol, and the lack thereof for isomenthol, molecules were assembled in silico and evaluated for their computed physicochemical characteristics relevant for the desired inhibition of 11β HSD activity. Originating from the lead compounds (FIG. 6), the computational analysis converged on several optimized structures that contained combinations of physicochemical and steric elements prerequisite for 11β HSD inhibition. These structures are identified in FIGS. 7-10. FIG. 7 details for neomenthol the findings obtained with this approach. FIG. 8 details the findings for a representative compound in which, among other modifications, a structure equivalent to the B ring of cortisol has been deleted. FIG. 9 details the findings for a representative compound in which, among other modifications, a ring has been added to the structure equivalent to the D ring of cortisol. FIG. 10 details the findings for a representative compound in which, among other modifications, a structure equivalent to the D ring of cortisol has been deleted. As originally proposed for neomenthol (FIG. 11), these structures are sufficiently isosteric and isoelectronic with cortisol to displace it from its plasma binding proteins, in this way increasing the bioavailable, free cortisol in a living system, e.g. after topical administration to skin only in skin blood vessels.

T1 sequence (P16232 whole entry): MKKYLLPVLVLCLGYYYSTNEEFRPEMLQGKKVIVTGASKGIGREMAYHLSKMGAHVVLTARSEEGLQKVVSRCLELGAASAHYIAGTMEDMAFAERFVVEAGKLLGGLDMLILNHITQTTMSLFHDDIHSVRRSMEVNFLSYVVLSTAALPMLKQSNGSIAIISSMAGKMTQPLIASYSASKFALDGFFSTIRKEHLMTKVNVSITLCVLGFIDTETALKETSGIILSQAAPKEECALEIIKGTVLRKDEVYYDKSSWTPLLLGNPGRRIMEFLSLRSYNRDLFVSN

| SMILES | inhibition of the enzyme | Ki [µM] | mode of inhibition |
| --- | --- | --- | --- |
| CC(C)[C@@H]1CC[C@@H](C)C[C@@H]1O [neomenthol, (1S, 2S, 5R)-neomenthol] | inhibited the enzyme | 35 | competitive |
| CC(C)[C@H]1CC[C@@H](C)C[C@@H]1O [isomenthol, (1S, 2R, 5R)-isomenthol] | inhibited the enzyme | 71 | non-competitive |
